Test results as given in patent EP0845217A1, “Inhibiting undesirable taste in oral compositions” (priority 1996, dated 1998).
Counter-ions that a name gives are not always drawn.

How the values were obtained:
mud puppy taste cells = assay: Response of isolated taste cells to bitter-tasting compounds, intracellular calcium fluorescence; format: cell-based; conditions: for effect on taste cell response to denatonium benzoate: inhibitor mixed with denatonium benzoate; for effect on taste cell response to dextromethorphan: inhibitor mixed with dextromethorphan; for taste cell response to bitter tasting compound: bitter compound alone
Experimental: Taste cells are isolated from the mud puppy, a type of salamander (S. C. Kinnamon, et al, Chemical Senses 13: 355 - 366, 1988). Briefly, a fresh mud puppy tongue is incubated with collagenase, the non-gustatory epithelium is peeled off the surface, and individual taste buds are gently drawn into a micropipette using a dissecting microscope at 50X magnification. The taste buds are plated into small vessels, that are coated with Cell-Tak, containing culture media. The taste cells can remain viable up to 18 days and maintain normal functions (C. Ruiz, et al, Experimental Cell Biology of Taste and Olfaction, Current Techniques and Protocols, A. I. Spielman and J. G. Brand, eds., CRC Press, 1995, pp. 79 - 84). The taste cells are labeled intracellularly with a marker compound that fluoresces in a dose-dependent fashion to calcium ion concentration. Since an increase in the intracellular calcium ion concentration is one of the last steps in converging biochemical signal transduction pathways for bitterness, the fluorescent marker correlates with taste cell response to bitterness (D. Restrepo, et al, Experimental Cell Biology of Taste and Olfaction, Current Techniques and Protocols, A. I. Spielman and J. G. Brand, eds., CRC Press, 1995, pp. 387 - 398). Labeled taste cells are observed microscopically using image analysis software. Using a micropipette, taste cells are exposed to bitter-tasting compounds by adding the compounds in media near the taste cell. Cells that respond to the bitter-tasting compound show an increase in fluorescence intensity. Bitter inhibitors are tested by adding them to the test solution with the bitter-tasting compound. The response of individual taste cells to bitter-tasting compounds and to bitter-tasting compounds plus inhibitor are monitored by measuring the fluorescent intensity using a microscope. Images are stored electronically and image analysis software is used to analyze the data (D. Restrepo, et al, Biophysical Journal 64: 1961 - 1966, 1993).

alkaline phosphatase = alkaline phosphatase (Bos taurus, UniProt P19111); format: biochemical, bovine; conditions: PNPP substrate
alkaline phosphatase, sequence (P19111 20-506): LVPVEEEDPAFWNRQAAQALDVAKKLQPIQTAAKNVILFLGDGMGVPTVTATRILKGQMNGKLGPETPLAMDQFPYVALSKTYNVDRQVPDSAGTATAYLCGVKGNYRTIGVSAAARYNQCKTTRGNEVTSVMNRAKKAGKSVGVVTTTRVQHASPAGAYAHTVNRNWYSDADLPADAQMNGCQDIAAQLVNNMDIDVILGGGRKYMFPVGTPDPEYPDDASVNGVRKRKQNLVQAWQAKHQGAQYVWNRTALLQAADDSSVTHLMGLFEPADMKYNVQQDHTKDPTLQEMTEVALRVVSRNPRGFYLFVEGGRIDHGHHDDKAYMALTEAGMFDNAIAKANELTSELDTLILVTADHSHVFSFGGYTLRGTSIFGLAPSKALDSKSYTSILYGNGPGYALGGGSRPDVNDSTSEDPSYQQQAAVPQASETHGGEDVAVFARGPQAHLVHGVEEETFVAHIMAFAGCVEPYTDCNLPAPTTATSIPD
Experimental: Enzyme kinetics experiments are done using purified alkaline phosphatase from bovine intestine and the substrate para-nitrophenyl phosphate (PNPP). The formation of colored para-nitrophenol (PNP) from colorless PNPP is followed by measuring the color formation in the presence of inhibitor at several concentrations.
Specifically, enzyme reactions are done in a volume of 200 ul containing 12.5 mU/ml alkaline phosphatase, PNPP at concentrations between 0.5-200 mM, and an inhibitor at concentrations between 0-100 mM. […] Phosphoserine is the natural substrate for this enzyme. The final buffer solution is 0.9 M diethanolamine and 0.5 mM […], pH 9.8, mixed 3:1 (v:v) with water. Reactions are done in a 96-well microtiter plate. The enzyme reaction is initiated by the addition of the enzyme. Each reaction mixture is done in triplicate. The enzyme reaction is monitored by measuring the optical density (OD) at 405 nm, with a reference OD of 490 nm. The OD's are read every 30 seconds over a 15 minute period at room temperature. PNP concentration is determined based on a standard curve correlating OD405/490 vs. PNP concentration. […] The data is then transformed and plotted as the Kmapp / Vmax. vs. inhibitor concentration. From these plots the dissociation constant of the enzyme-inhibitor complex, Ki, is determined. The x-intercept on this plot equals (-Ki). […]

[1] = test system: Pig taste tissue tyrosine phosphatase; assay: Protein tyrosine phosphatase activity of pig taste tissue homogenate, phosphotyrosine peptide substrates, ELISA; format: biochemical; conditions: for % Total Phosphatase Activity: pig taste tissue 615 ug/ml protein, 10°C for 20 min
Experimental: Taste tissue (circumvallate papillae) is dissected from fresh pig tongue and homogenized in buffer. Protein tyrosine phosphatase activity is measured using peptides containing phosphotyrosine as the substrate. Two substrates are used. […] The removal of phosphate from the phosphotyrosines is determined by measurement of phosphotyrosine concentration, using an ELISA, after reaction of the peptide substrate with pig taste tissue. The activity of purified tyrosine phosphatase is determined in each experiment as a control.
In this experiment, pig taste tissue and peptide substrate are combined in a buffer of 20 mM Tris, 0.1% beta-mercaptoethanol, and 1 mg/ml BSA, pH 7.0. A total volume of 100 ul in each well of a 96-well microtiter plate is used. […] The enzyme reaction is done at 10°C for 20 min. The reaction is stopped by the addition of 25 ul 400 uM sodium orthovanadate. […]
In another experiment using the same conditions as described above, the tyrosine dephosphorylation of peptide substrate 1 is measured after 1, 2, 3, 4, 5, 6, 7 and 8 minute reactions at room temperature with pig taste tissue (41 ug/ml protein) as the enzyme source.

[2] = test system: purified protein tyrosine phosphatase; assay: Purified protein tyrosine phosphatase, dephosphorylation of phosphotyrosine-containing peptide substrates; format: biochemical; conditions: experiments not described
[3] = molecular target: protein tyrosine phosphatase (Yersinia enterocolitica, UniProt P15273); assay: Protein tyrosine phosphatase enzyme kinetics with PNPP substrate; format: biochemical; conditions: pH 7.5
protein tyrosine phosphatase, sequence (P15273 whole entry): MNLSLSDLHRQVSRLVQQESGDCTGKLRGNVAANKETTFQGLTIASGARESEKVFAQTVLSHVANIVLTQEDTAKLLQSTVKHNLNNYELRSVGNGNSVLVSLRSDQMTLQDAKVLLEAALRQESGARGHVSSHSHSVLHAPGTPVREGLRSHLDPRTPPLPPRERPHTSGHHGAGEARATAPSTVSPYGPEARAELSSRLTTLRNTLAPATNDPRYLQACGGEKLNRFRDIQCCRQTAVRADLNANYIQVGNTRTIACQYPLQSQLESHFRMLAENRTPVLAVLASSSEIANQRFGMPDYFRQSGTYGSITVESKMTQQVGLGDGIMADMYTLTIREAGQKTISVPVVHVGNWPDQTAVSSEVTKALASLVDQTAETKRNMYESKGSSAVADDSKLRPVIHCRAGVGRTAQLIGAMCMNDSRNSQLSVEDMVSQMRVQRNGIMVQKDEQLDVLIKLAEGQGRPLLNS
Experimental: Enzyme kinetics are done using purified protein tyrosine phosphatase from the bacteria, Yersinia enterocolitica, recombinant form, with PNPP as the substrate. The enzyme kinetics experiments are done similarly to the kinetics experiments for alkaline phosphatase and acid phosphatase described above.
Each final reaction mixture contains 20 mM Tris, 0.1 % beta-mercaptoethanol, and 0.1% bovine serum albumin at pH 7.5. The ionic strength of each reaction mixture is the same and is balanced by the addition of the appropriate amount of NaCl. Activity of this enzyme is extremely sensitive to ionic strength. Each reaction is begun with the addition of tyrosine phosphatase. The formation of PNP is monitored by measuring the OD405/490 at 30 second intervals over a 30 minute period. The enzyme velocity is linear over this time period under these conditions. The Ki values are calculated as described above for alkaline phosphatase (Table 2).

## C=C1[C@@H](O)[C@@H]2O[C@]3(CC[C@H](/C=C/[C@@H](C)[C@@H]4CC(C)=C[C@@]5(O[C@H](C[C@@](C)(O)C(=O)O)CC[C@H]5O)O4)O3)CC[C@H]2O[C@@H]1[C@@H](O)C[C@H](C)[C@H]1O[C@@]2(CCCCO2)CC[C@H]1C [okadaic acid]
Mud puppy taste cells
  effect on taste cell response to denatonium benzoate: has no effect on response
  effect on taste cell response to dextromethorphan: has no effect on response

## COc1ccc2c(c1)[C@]13CCCC[C@@H]1[C@H](C2)N(C)CC3 [dextromethorphan]
Mud puppy taste cells
  taste cell response to bitter tasting compound: increase in intracellular calcium concentration

## N[C@@H](COP(=O)(O)O)C(=O)O [Phosphoserine, reference compound]
Alkaline phosphatase
  type of inhibition of alkaline phosphatase: competitively inhibited

## CC[N+](CC)(CC(=O)Nc1c(C)cccc1C)Cc1ccccc1 [denatonium benzoate]
Mud puppy taste cells
  taste cell response to bitter tasting compound: increase in intracellular calcium concentration

## N[C@@H](Cc1ccc(OP(=O)(O)O)cc1)C(=O)O [phosphotyrosine]
[1]; pig taste tissue 41 ug/ml protein, room temperature, final concentration 10 nmoles/ml
  time until complete dephosphorylation of substrate 1: 7 min
Mud puppy taste cells; inhibitor mixed with chlorpheniramine maleate
  effect on taste cell response to chlorpheniramine maleate: decreases the response
Mud puppy taste cells
  effect on taste cell response to denatonium benzoate: decreases the response
  effect on taste cell response to dextromethorphan: decreases the response
[2]
  effect on tyrosine phosphatase activity against peptide substrates: inhibit the dephosphorylation

## NCCC(O)(P(=O)(O)O)P(=O)(O)O [Pamidronic acid, pamidronic acid]
Mud puppy taste cells
  effect on taste cell response to denatonium benzoate: small reduction in response
  effect on taste cell response to dextromethorphan: small reduction in response

## C=CCc1ccc(OP(=O)(O)O)c(OC)c1 [EMP, eugenylmonophosphate]
[2]
  effect on tyrosine phosphatase activity against peptide substrates: inhibits the activity
Alkaline phosphatase
  type of inhibition of alkaline phosphatase: competitively inhibited
[3]; 22°C
  Ki: 3.7 mM
[3]; 37°C
  Ki: 3.3 mM

## O=P(O)(O)CP(=O)(O)O [Methylene diphosphonic acid]
Mud puppy taste cells; denatonium benzoate
  share of taste cells tested with small decrease in response to denatonium benzoate: 50%
Mud puppy taste cells
  effect on taste cell response to denatonium benzoate: small decrease in response

## O=C(O)CP(=O)(O)O [phosphonic acetic acid]
Mud puppy taste cells
  effect on taste cell response to denatonium benzoate: small reduction in response
  effect on taste cell response to dextromethorphan: small reduction in response

## Cc1ccc(C(C)C)c(OP(=O)(O)O)c1 [ThMP, thymylmonophosphate]
Alkaline phosphatase
  type of inhibition of alkaline phosphatase: competitively inhibited
[3]; 22°C
  Ki: 3.6 mM

## F [calcium fluoride]
[1]; Peptide Substrate 1
  % Total Phosphatase Activity: 109%
[1]; Peptide Substrate 2
  % Total Phosphatase Activity: 96%
[1]; pig taste tissue 41 ug/ml protein, room temperature, calcium fluoride added, concentration not given
  time until all phosphates are removed from peptide substrate 1: 2 min
[2]
  effect on tyrosine phosphatase activity against peptide substrates: does not affect tyrosine phosphatase activity

## CC1CCC(C(C)C)C(OP(=O)(O)O)C1 (stereo not drawn) [MMP, menthylmonophosphate]
Alkaline phosphatase
  type of inhibition of alkaline phosphatase: competitively inhibited

## [Na+].[Na+].[Na+].[O]=[V]([O-])([O-])[O-] [sodium orthovanadate]
[1]; Peptide Substrate 1
  % Total Phosphatase Activity: 32%
[1]; Peptide Substrate 2
  % Total Phosphatase Activity: 46%
[1]; pig taste tissue 41 ug/ml protein, room temperature, final concentration 100 nmoles/ml
  time until complete dephosphorylation of substrate 1: 7 min
Mud puppy taste cells
  effect on taste cell response to denatonium benzoate: inhibits the response
[2]
  effect on tyrosine phosphatase activity against peptide substrates: inhibits the tyrosine phosphatase activity

## CN(C)CCC(c1ccc(Cl)cc1)c1ccccn1 (stereo not drawn) [chlorpheniramine maleate]
Mud puppy taste cells
  taste cell response to bitter tasting compound: increase in intracellular calcium concentration
